In patent US10005768B2, “Carboxamide derivatives and use thereof” (Purdue Pharma L.P., priority 2013, dated 2018) one finds IC50 data, which are given here for 7 compounds.

Sequence of human Nav1.7 (Q15858 other isoform, or with tags, fused parts or gaps): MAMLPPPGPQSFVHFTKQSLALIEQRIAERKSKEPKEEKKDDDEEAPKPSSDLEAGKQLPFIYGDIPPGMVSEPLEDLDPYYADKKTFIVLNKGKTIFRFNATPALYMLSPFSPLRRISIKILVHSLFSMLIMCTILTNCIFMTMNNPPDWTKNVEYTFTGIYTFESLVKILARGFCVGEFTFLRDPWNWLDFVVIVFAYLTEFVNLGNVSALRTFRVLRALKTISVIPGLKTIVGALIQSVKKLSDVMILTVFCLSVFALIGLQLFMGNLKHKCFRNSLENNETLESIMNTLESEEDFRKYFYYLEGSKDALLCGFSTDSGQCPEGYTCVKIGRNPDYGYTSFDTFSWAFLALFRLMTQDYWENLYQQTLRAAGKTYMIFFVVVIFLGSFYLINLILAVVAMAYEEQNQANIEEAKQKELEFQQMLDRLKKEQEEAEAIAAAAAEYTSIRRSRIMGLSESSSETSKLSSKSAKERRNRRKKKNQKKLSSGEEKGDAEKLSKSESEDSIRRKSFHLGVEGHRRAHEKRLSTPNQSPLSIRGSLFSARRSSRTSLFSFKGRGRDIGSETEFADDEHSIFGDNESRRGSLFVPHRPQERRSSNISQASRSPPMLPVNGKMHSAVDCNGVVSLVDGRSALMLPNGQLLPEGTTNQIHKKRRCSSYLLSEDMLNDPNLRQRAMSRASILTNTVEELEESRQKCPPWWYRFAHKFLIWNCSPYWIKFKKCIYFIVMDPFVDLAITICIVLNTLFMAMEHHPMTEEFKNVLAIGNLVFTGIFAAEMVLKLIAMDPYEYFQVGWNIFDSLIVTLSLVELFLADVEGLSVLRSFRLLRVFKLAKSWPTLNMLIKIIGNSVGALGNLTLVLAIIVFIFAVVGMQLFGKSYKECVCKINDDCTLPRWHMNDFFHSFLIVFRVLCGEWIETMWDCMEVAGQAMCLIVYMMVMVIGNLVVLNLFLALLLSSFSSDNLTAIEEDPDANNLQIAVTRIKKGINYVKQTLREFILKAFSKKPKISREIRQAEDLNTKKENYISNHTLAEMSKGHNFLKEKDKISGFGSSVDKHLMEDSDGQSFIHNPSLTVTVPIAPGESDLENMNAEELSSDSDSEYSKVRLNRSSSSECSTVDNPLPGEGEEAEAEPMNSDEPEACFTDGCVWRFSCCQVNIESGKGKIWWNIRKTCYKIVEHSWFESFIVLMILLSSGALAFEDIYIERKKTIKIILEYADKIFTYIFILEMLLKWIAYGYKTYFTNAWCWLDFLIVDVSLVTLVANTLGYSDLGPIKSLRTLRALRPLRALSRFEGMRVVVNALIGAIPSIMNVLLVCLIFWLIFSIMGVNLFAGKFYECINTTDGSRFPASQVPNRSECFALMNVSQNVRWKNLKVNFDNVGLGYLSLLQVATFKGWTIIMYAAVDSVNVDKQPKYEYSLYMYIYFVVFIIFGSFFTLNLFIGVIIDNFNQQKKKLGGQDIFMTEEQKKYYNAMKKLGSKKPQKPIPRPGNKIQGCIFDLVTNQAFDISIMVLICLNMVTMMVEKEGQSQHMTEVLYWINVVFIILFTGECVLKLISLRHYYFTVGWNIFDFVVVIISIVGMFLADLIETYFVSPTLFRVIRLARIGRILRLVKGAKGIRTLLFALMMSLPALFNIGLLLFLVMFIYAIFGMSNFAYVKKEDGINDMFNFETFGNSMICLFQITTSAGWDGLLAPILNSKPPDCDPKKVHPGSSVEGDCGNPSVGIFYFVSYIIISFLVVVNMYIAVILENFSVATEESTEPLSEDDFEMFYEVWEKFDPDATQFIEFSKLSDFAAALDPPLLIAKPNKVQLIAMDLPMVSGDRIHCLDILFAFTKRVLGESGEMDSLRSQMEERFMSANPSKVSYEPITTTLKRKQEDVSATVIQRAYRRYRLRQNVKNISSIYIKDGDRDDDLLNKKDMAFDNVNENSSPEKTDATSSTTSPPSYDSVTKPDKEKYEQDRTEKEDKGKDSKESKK

This experiment addresses human Nav1.7 (Homo sapiens (Human), UniProt Q15858). Description: FLIPR membrane potential dye assay (alternative fluorescence assay). It counts as cell-based. The conditions noted are these: recombinant Nav1.7/HEK293 cells. The procedure:
In vitro assays were performed in a recombinant cell line expressing cDNA encoding the alpha subunit (Nav1.7, SCN9a, PN1, NE) of human Nav1.7 (Accession No. NM_002977). The cell line was provided by investigators at Yale University (Cummins et al, J. Neurosci. 18(23): 9607-9619 (1998)). For dominant selection of the Nav1.7-expressing clones, the expression plasmid co-expressed the neomycin resistance gene. The cell line was constructed in the human embryonic kidney cell line, HEK293, under the influence of the CMV […] promoter, and stable clones were selected using limiting dilution cloning and antibiotic selection using the neomycin analogue, G418. Recombinant beta and gamma subunits were not introduced into this cell line. Additional cell lines expressing recombinant Nav1.7 cloned from other species can also be used, alone or in combination with various beta subunits, gamma subunits or chaperones.
A fluorescence indicator that can be used in alternative fluorescence assays is the blue version membrane potential dye (MDS, Molecular Devices, Sunnyvale, Calif.), a dye that detects changes in molecules following a change in membrane potential. An increase in fluorescence is expected if agonist stimulation provokes a change in membrane potential. Cells expressing Nav1.7 or other sodium channels are incubated with the membrane potential dye 30-60 minutes before the fluorescence assay. In the case of the KCl pre-stimulation version of the assay, the dye and all other components are washed out immediately before the assay, and the dye is then replaced. In the version lacking KCl pre-stimulation, the dye remains on the cells and is not washed out or replaced. The dye is stored in the dark as a lyophilized powder, and then an aliquot dissolved in assay buffer to form a 20×-concentrated stock solution that can be used for several weeks.
In the fluorescence assays, two agonists were used in combination, namely 1) veratridine; and 2) the venom from the yellow scorpion, Leiurus quinquestriatus hebraeus. Veratridine is an alkaloid small molecule that facilitates the capture of channel openings by inhibiting inactivation, and the scorpion venom is a natural preparation that includes peptide toxins selective for different subsets of voltage-gated sodium channels. These scorpion toxins inhibit the fast inactivation of their cognate target channels. Stock solutions of the agonists were prepared to 40 mM in DMSO (veratridine) and 1 mg/mL in dH2O (scorpion venom), and then diluted to make a 4× or 2× stock (depending on the particular assay) in assay buffer, the final concentration being 100 μM (veratridine) and 10 μg/mL (scorpion venom). Both of the agonists were purchased from Sigma Aldrich, St. Louis, Mo.
Test compounds were dissolved in DMSO to yield 10 mM stock solutions. The stock solutions were further diluted using DMSO in 1:3 serial dilution steps with 10 points (10,000 μM, […], 370 μM, 123 μM, 41 μM, 14 μM, 4.6 μM, 1.5 μM and 0.5 μM). The stock solutions were further diluted in assay buffer (1:125) as 4× stock serial dilutions with a DMSO concentration of 0.8% (final [DMSO], in the assay, from the compounds component=0.2%), so that the compounds' final concentrations in the assay were 20 μM, 6.7 μM, 2.2 μM, 0.74 μM, 0.25 μM and 0.08 μM, 0.03 μM, 0.01 μM, 0.003 μM and 0.001 μM. If a particular test article appeared to be especially potent, then the concentration curve was adjusted, e.g., to 10-fold lower concentrations, in order to perform the dose-response in a more relevant concentration range. Compound dilutions were added during the dye-loading and pre-stimulation step, and then again during the fluorescence assay, early in the kinetic read.
The data were analyzed according to methods known to those skilled in the art or using the GraphPad® Prism Program, version 4.0 or higher (available from GraphPad Software, San Diego, Calif.) to determine the IC50 value for the test article. […]
In general, IC50 refers to the concentration that inhibits the measured activity by half. Regarding `O=C(Nc1nccs1)c1cc(C(F)(F)F)ccc1Oc1ccc(-c2cccc([C@H](O)CO)n2)cc1` [compound 175, (S)-2-(4-(6-(1,2-dihydroxyethyl)pyridin-2-yl)phenoxy)-N-(thiazol-2-yl)-5-(trifluoromethyl)benzamide], the IC50 worked out at 1.31 ± 0.054 µM.
As for `NC(=O)c1cc([C@H](O)CO)cc(-c2ccc(Oc3ccc(Cl)cc3-c3ccnn3C3CNC3)cc2)n1` [compound 136, (S)-6-(4-(2-(1-(azetidin-3-yl)-1H-pyrazol-5-yl)-4-chlorophenoxy)phenyl)-4-(1,2-dihydroxyethyl)picolinamide], the figure is above 20 µM; as for `CN(C)c1cnc(-c2cc(C(F)(F)F)ccc2Oc2ccc(-c3nc(N[C@H]4CCNC4=O)cc(C(N)=O)n3)cc2)cn1` [compound 129, (S)-2-(4-(2-(5-(dimethylamino)pyrazin-2-yl)-4-(trifluoromethyl)phenoxy)phenyl)-6-((2-oxopyrrolidin-3-yl)amino)pyrimidine-4-carboxamide], 0.702 ± 0.035 µM; as for `Cn1nccc1-c1cc(C(F)(F)F)ccc1Oc1ccc(-c2cccc(C(N)=O)n2)cc1` [compound 123, 6-(4-(2-(1-methyl-1H-pyrazol-5-yl)-4-(trifluoromethyl)phenoxy)phenyl) picolinamide], 0.149 ± 0.056 µM.
Take `Cn1nccc1-c1cc(C(F)(F)F)ccc1Oc1ccc(-c2cc([C@H](O)CO)cc(C(N)=O)n2)cc1` [compound 135, (S)-4-(1,2-dihydroxythyl)-6-(4-(2-(1-methyl-1H-pyrazol-5-yl)-4-(trifluoromethyl)phenoxy)phenyl) picolinamide]: the IC50 was found to be 0.294 ± 0.054 µM.
As for `C[C@H](Nc1cc(C(N)=O)nc(-c2ccc(Oc3ccc(C(F)(F)F)cc3-c3ccnn3C)cc2)n1)C(N)=O` [compound 138, (S)-6-((1-amino-1-oxopropan-2-yl)amino)-2-(4-(2-(1-methyl-1H-pyrazol-5-yl)-4-(trifluoromethyl)phenoxy)phenyl) pyrimidine-4-carboxamide], the figure is 0.6 ± 0.077 µM; as for `Cn1nccc1-c1cc(C(F)(F)F)ccc1Oc1ccc(-c2nc(N[C@H]3CCNC3=O)cc(C(N)=O)n2)cc1` [compound 126, (S)-2-(4-(2-(1-methyl-1H-pyrazol-5-yl)-4-(trifluoromethyl)phenoxy)phenyl)-6-((2-oxopyrrolidin-3-yl)amino)pyrimidine-4-carboxamide], 0.288 ± 0.045 µM.
